According to patent US10039283B2, “Substituted pyrazolyl-nicotin(thio)amide derivatives and their use as fungicides” (BAYER CROPSCIENCE AKTIENGESELLSCHAFT, priority 2014, dated 2018):

assay: Log P by HPLC on reversed phase, method [a], acidic range (0.1% formic acid); format: physicochemical; conditions: LC-UV, 0.1% formic acid in water and acetonitrile

Structure (SMILES)	LogP
O=C(Nc1cnn(-c2cccc(Cl)c2)c1Br)c1cccnc1C(F)F [Example 153]	2.54^[a]
Cc1cccc(-n2ncc(NC(=O)c3cc(C)cnc3C(F)F)c2C(F)(F)F)c1 [Example 154]	2.96^[a]
O=C(Nc1cnn(-c2cccc(Cl)c2)c1C(F)(F)F)c1ccc(Cl)nc1C(F)F [Example 155]	3.62^[a]
Cc1cccc(-n2ncc(NC(=O)c3ccc(Cl)nc3C(F)F)c2C(F)(F)F)c1 [Example 156]	3.33^[a]
Cc1ccc(-n2ncc(NC(=O)c3ccc(Cl)nc3C(F)F)c2C(F)(F)F)cc1 [Example 157]	3.48^[a]
O=C(Nc1cnn(-c2ccccc2F)c1C(F)(F)F)c1ccc(Cl)nc1C(F)F [Example 158]	3.15^[a]
CC(C)c1ccc(-n2ncc(NC(=O)c3ccc(Cl)nc3C(F)F)c2C(F)(F)F)cc1 [Example 159]	4.13^[a]
O=C(Nc1cnn(-c2c(Cl)cccc2Cl)c1C(F)(F)F)c1ccc(Cl)nc1C(F)F [Example 160]	3.53^[a]
O=C(Nc1cnn(-c2cc(Cl)cc(Cl)c2)c1C(F)(F)F)c1ccc(Cl)nc1C(F)F [Example 161]	4.23^[a]
O=C(Nc1cnn(-c2ccc(Cl)cc2Cl)c1C(F)(F)F)c1ccc(Cl)nc1C(F)F [Example 162]	3.85^[a]
O=C(Nc1cnn(-c2cccc(Cl)c2Cl)c1C(F)(F)F)c1ccc(Cl)nc1C(F)F [Example 163]	3.71^[a]
N#Cc1c(NC(=O)c2ccc(Cl)nc2C(F)F)cnn1-c1ccccc1 [Example 164]	2.90^[a]
COc1cnc(C(F)F)c(C(=O)Nc2cnn(-c3cccc(Cl)c3Cl)c2C(F)(F)F)c1 [Example 165]	3.37^[a]
Cc1cnc(C(F)F)c(C(=O)Nc2cnn(-c3ccccc3)c2C#N)c1 [Example 166]	2.51^[a]
Cc1cnc(C(F)F)c(C(=O)Nc2cnn(-c3cccc(Cl)c3Cl)c2C(F)(F)F)c1 [Example 167]	3.35^[a]
COc1cnc(C(F)F)c(C(=O)Nc2cnn(-c3ccc(Cl)cc3Cl)c2C(F)(F)F)c1 [Example 168]	3.53^[a]
COc1cnc(C(F)F)c(C(=O)Nc2cnn(-c3ccc(Cl)cc3)c2C(F)(F)F)c1 [Example 169]	3.29^[a]
Cc1cnc(C(F)F)c(C(=O)Nc2cnn(Cc3ccccc3)c2C(F)(F)F)c1 [Example 170]	2.95^[a]
Cc1cnc(C(F)F)c(C(=O)Nc2cnn(-c3c(Cl)cccc3Cl)c2C(F)(F)F)c1 [Example 171]	3.16^[a]
O=C(Nc1cnn(-c2ccc(Cl)cc2Cl)c1C(F)(F)F)c1ccc(Br)nc1C(F)F [Example 172]	3.96^[a]
O=C(Nc1cnn(Cc2ccccc2)c1C(F)(F)F)c1ccc(Cl)nc1C(F)F [Example 173]	3.33^[a]
Cc1cnc(C(F)F)c(C(=O)Nc2cnn(-c3cc(Cl)cc(Cl)c3)c2C(F)(F)F)c1 [Example 174]	3.89^[a]
Cc1cnc(C(F)F)c(C(=O)Nc2cnn(-c3cc(Cl)ccc3Cl)c2C(F)(F)F)c1 [Example 175]	3.39^[a]
O=C(Nc1cnn(-c2cc(Cl)ccc2Cl)c1C(F)(F)F)c1ccc(Cl)nc1C(F)F [Example 176]	3.76^[a]
COc1cnc(C(F)F)c(C(=O)Nc2cnn(-c3cc(Cl)ccc3Cl)c2C(F)(F)F)c1 [Example 177]	3.39^[a]
O=C(Nc1cnn(-c2cc(Cl)ccc2Cl)c1C(F)(F)F)c1ccc(Br)nc1C(F)F [Example 178]	3.85^[a]
Cc1cnc(C(F)F)c(C(=O)Nc2cnn(-c3ccc(Cl)c(Cl)c3)c2C(F)(F)F)c1 [Example 179]	3.76^[a]

Structure (SMILES)	LogP
O=C(Nc1cnn(-c2ccc(Cl)c(Cl)c2)c1C(F)(F)F)c1ccc(Cl)nc1C(F)F [Example 180]	4.11^[a]
O=C(Nc1cnn(-c2ccc(Cl)c(Cl)c2)c1C(F)(F)F)c1ccc(Br)nc1C(F)F [Example 181]	4.19^[a]
O=C(Nc1cnn(-c2ccc(C(F)(F)F)cc2)c1-c1ccc(Cl)cc1)c1cccnc1C(F)F [Example 182]	3.55^[a]
O=C(Nc1cnn(-c2ccc(Cl)cc2)c1Cl)c1cccnc1C(F)F [Example 183]	2.55^[a]
O=C(Nc1cnn(-c2ccc(C(F)(F)F)cc2)c1-c1ccc(F)cc1)c1cccnc1C(F)F [Example 184]	3.31^[a]
O=C(Nc1cnn(-c2ccc(C(F)(F)F)cc2)c1-c1cccc(F)c1)c1cccnc1C(F)F [Example 185]	3.31^[a]
O=C(Nc1cnn(-c2ccc(C(F)(F)F)cc2)c1-c1ccccc1)c1cccnc1C(F)F [Example 186]	3.24^[a]
O=C(Nc1cnn(-c2ccc(Cl)cc2)c1-c1ccc(F)cc1)c1cccnc1C(F)F [Example 187]	3.10^[a]
O=C(Nc1cnn(-c2ccc(C(F)(F)F)cc2)c1Cl)c1cccnc1C(F)F [Example 188]	2.81^[a]
COc1ccc(-n2ncc(NC(=O)c3cccnc3C(F)F)c2Cl)cc1 [Example 189]	2.09^[a]
O=C(Nc1cnn(-c2ccc(F)cc2)c1Cl)c1cccnc1C(F)F [Example 190]	2.14^[a]
O=C(Nc1cnn(-c2ccccc2Cl)c1Cl)c1cccnc1C(F)F [Example 191]	2.17^[a]
O=C(Nc1cnn(-c2ccc(F)cc2)c1Br)c1cccnc1C(F)F [Example 192]	2.17^[a]
COc1ccc(-n2ncc(NC(=O)c3cccnc3C(F)F)c2Br)cc1 [Example 193]	2.09^[a]
O=C(Nc1cnn(-c2ccc(Cl)cc2)c1-c1ccc(Cl)cc1)c1cccnc1C(F)F [Example 194]	3.35^[a]
O=C(Nc1cnn(-c2ccc(Br)cc2)c1-c1ccc(F)cc1)c1cccnc1C(F)F [Example 195]	3.20^[a]
O=C(Nc1cnn(-c2ccc(Br)cc2)c1-c1ccccc1)c1cccnc1C(F)F [Example 196]	3.10^[a]
O=C(Nc1cnn(-c2ccc(Cl)cc2)c1-c1cccc(F)c1)c1cccnc1C(F)F [Example 197]	3.07^[a]
O=C(Nc1cnn(-c2ccc(Cl)cc2)c1-c1ccccc1)c1cccnc1C(F)F [Example 198]	2.99^[a]
O=C(Nc1cnn(-c2ccc(Br)cc2)c1-c1cccc(Cl)c1)c1cccnc1C(F)F [Example 199]	3.46^[a]
O=C(Nc1cnn(-c2ccc(Br)cc2)c1-c1ccc(Cl)cc1)c1cccnc1C(F)F [Example 200]	3.46^[a]
O=C(Nc1cnn(-c2ccc(Br)cc2)c1-c1cccc(F)c1)c1cccnc1C(F)F [Example 201]	3.19^[a]
O=C(Nc1cnn(-c2cc(Cl)cc(Cl)c2)c1Cl)c1cccnc1C(F)F [Example 202]	3.19^[a]
O=C(Nc1cnn(-c2cc(Cl)cc(Cl)c2)c1Br)c1cccnc1C(F)F [Example 203]	3.23^[a]
CCc1c(NC(=O)c2cc(C)cnc2C(F)F)cnn1-c1ccccc1C [Example 204]	2.44^[a]
Cc1cnc(C(F)F)c(C(=O)Nc2cnn(-c3ccccc3C)c2C(C)C)c1 [Example 205]	2.60^[a]
CCc1c(NC(=O)c2cc(C)cnc2C(F)F)cnn1-c1cccc(C)c1 [Example 206]	2.57^[a]

Structure (SMILES)	LogP
CCc1c(NC(=O)c2cc(C)cnc2C(F)F)cnn1-c1ccc(C)cc1 [Example 207]	2.57^[a]
Cc1ccc(-n2ncc(NC(=O)c3cc(C)cnc3C(F)F)c2C(C)C)cc1 [Example 208]	2.73^[a]
Cc1cnc(C(F)F)c(C(=O)Nc2cnn(-c3ccccc3Cl)c2C(C)C)c1 [Example 209]	2.59^[a]
Cc1cnc(C(F)F)c(C(=O)Nc2cnn(-c3cccc(Cl)c3)c2C(C)C)c1 [Example 210]	2.84^[a]
Cc1cnc(C(F)F)c(C(=O)Nc2cnn(-c3ccc(Cl)cc3)c2C(C)C)c1 [Example 211]	2.86^[a]
CCc1c(NC(=O)c2cc(C)cnc2C(F)F)cnn1-c1ccccc1Cl [Example 212]	2.41^[a]
CCc1c(NC(=O)c2cc(C)cnc2C(F)F)cnn1-c1cccc(Cl)c1 [Example 213]	2.71^[a]
CCc1c(NC(=O)c2cc(C)cnc2C(F)F)cnn1-c1ccc(Cl)cc1 [Example 214]	2.73^[a]
COc1c(NC(=O)c2cccnc2C(F)F)cnn1-c1ccccc1Cl [Example 215]	1.85^[a]
COc1c(NC(=O)c2cccnc2C(F)F)cnn1-c1cc(Cl)cc(Cl)c1 [Example 216]	3.02^[a]
O=C(Nc1cnn(-c2ccccc2Cl)c1Br)c1cccnc1C(F)F [Example 217]	2.18^[a]
COc1c(NC(=O)c2cccnc2C(F)F)cnn1-c1ccc(Cl)cc1 [Example 218]	2.32^[a]
COc1c(NC(=O)c2cccnc2C(F)F)cnn1-c1ccc(C(F)(F)F)cc1 [Example 219]	2.63^[a]
O=C(Nc1cnn(-c2ccc(Cl)cc2)c1Br)c1cccnc1C(F)F [Example 220]	2.50^[a]
O=C(Nc1cnn(-c2ccc(Cl)cc2)c1OCC(F)(F)F)c1cccnc1C(F)F [Example 221]	2.88^[a]
O=C(Nc1cnn(-c2ccc(Cl)cc2)c1OCC(F)F)c1cccnc1C(F)F [Example 222]	2.60^[a]
N#Cc1c(NC(=O)c2cccnc2C(F)F)cnn1-c1ccc(Cl)cc1 [Example 223]	2.64^[a]
O=C(Nc1cnn(-c2ccc(Cl)cc2)c1SC(F)(F)F)c1cccnc1C(F)F [Example 224]	3.25^[a]
CCOc1c(NC(=O)c2cccnc2C(F)F)cnn1-c1ccc(Cl)cc1 [Example 225]	2.62^[a]
CC(C)Oc1c(NC(=O)c2cccnc2C(F)F)cnn1-c1ccc(Cl)cc1 [Example 226]	2.86^[a]
CCCOc1c(NC(=O)c2cccnc2C(F)F)cnn1-c1ccc(Cl)cc1 [Example 227]	2.95^[a]
O=C(Nc1cnn(-c2ccc(Br)cc2)c1SC(F)(F)F)c1cccnc1C(F)F [Example 228]	3.43^[a]
CCCc1ccc(-n2ncc(NC(=O)c3cccnc3C(F)F)c2C(F)(F)F)cc1 [Example 229]	3.59^[a]
CCOc1ccc(-n2ncc(NC(=O)c3cccnc3C(F)F)c2C(F)(F)F)cc1 [Example 230]	2.88^[a]
CC(C)(C)c1ccc(-n2ncc(NC(=O)c3cccnc3C(F)F)c2C(F)(F)F)cc1 [Example 231]	3.79^[a]
O=C(Nc1cnn(-c2ccc(-c3ccccc3)cc2)c1C(F)(F)F)c1cccnc1C(F)F [Example 232]	3.59^[a]
